# Laboratory results published in patent US20100222410A1, “Nuclease compositions and methods” (Massachusetts Institute of Technology, priority 2008, published 2010).
# Legend:
# [1] = system: E. coli; test: 17S rRNA accumulation after treatment of E. coli (total rRNA analysis); format: cell-based
# Protocol: Polysome and rRNA analysis. Polysome profiles were obtained as described previously. rRNA was extracted from logarithmically growing cultures or separated ribosome fractions using Qiagen RNeasy Mini Kit. 16S and 23 rRNA were separated using Synergel/Agarose gel electrophoresis as described previously. […] The site-specific RNase H cleavage assay was performed as described previously followed by Northern hybridization using primers specific for the mature 3′termini of 16S, 23S, and 5S, respectively. 100 ng of total MC4100 or mutant RNA were used for each assay. All reactions were separated on denaturing polyacrylamide gels.
# [2] = molecular target: T1, YbeY (Escherichia coli, UniProt P0A898); test: Inhibition of YbeY RNase activity in the in vitro cleavage assay (total rRNA substrate); format: biochemical, E. coli
# T1 construct: His (N, cleaved yes); MBP (N, cleaved yes); made in house; host or cells: E. coli, pET28A vector, IPTG induction
# T1 sequence (P0A898 whole entry): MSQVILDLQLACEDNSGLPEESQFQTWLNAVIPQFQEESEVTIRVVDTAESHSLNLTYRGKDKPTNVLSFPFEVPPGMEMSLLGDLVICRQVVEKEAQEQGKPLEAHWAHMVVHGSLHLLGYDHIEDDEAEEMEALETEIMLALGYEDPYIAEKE
# Protocol: (§1) In vitro cleavage assays. All YbeY RNase assays were carried out in 50 mM HEPES pH 7.5 in a 20 μl final volume and used 0.2 μg of purified YbeY or 8.0 μg of MBP-YbeY. For assays using total rRNA or folA mRNA as substrate, 800 ng of total E. coli rRNA or synthesized folA mRNA was incubated with YbeY or MBP-YbeY for 30′ at 37° C., separated on an agarose/synergel mix gel and stained with ethidium bromide. Where indicated EDTA was added to 50 mM and MgSO4 was added to 5 mM. For assays using ΔybeY mutant 70S ribosomes as substrate, 800 ng of ΔybeY mutant 70S ribosomes was incubated with YbeY for the indicated time at 37° C., separated on an agarose/synergel mix gel and stained with ethidium bromide. For each reaction, 200 pmol of short RNA substrate was incubated with YbeY or MBP-YbeY for the indicated time at 37° C. Products were separated on denaturing PAGE. The ladder used for each substrate was made by alkaline hydrolysis of the respective substrate. A synthesized short rRNA of defined length was used as a reference for numerating the ladder.
# [3] = system: total E. coli rRNA; test: In vitro cleavage assay, total rRNA as substrate; format: biochemical; settings: MBP-YbeY at four times the molar concentration of YbeY
# Protocol: as §1
# [4] = system: folA mRNA; test: In vitro cleavage assay, defined mRNA as substrate; format: biochemical
# Protocol: as §1
# [5] = system: double stranded or single stranded DNA; test: YbeY activity on DNA; format: biochemical; settings: in vitro
# [6] = system: purified 70S ribosomes isolated from the ΔybeY mutant; test: In vitro cleavage assay, 70S ribosomes as substrate; format: biochemical, E. coli; settings: over time, absence of Mg^2+
# Protocol: as §1
# [7] = system: short, sequence-defined, RNA substrates; test: In vitro cleavage assay, short sequence-defined RNA substrates; format: biochemical; settings: for position of major cleavage product from the beginning of the duplex: partially dsRNA substrate with ssRNA 3′ terminus
# Protocol: as §1
# [8] = system: 16S rRNA 3′ terminus mimic; test: YbeY activity on 16S rRNA 3′ terminus mimics; format: biochemical, E. coli
# Protocol: as §1
# [9] = partially duplexed RNA substrate with 5′ ssRNA terminus, FIG. 3G
molecule,measurement,setting,value
OO [hydrogen peroxide],accumulation of 17S rRNA,[1],does not cause the accumulation of 17S
CC1(C)S[C@@H]2[C@H](NC(=O)[C@H](N)c3ccccc3)C(=O)N2[C@H]1C(=O)O [ampicillan],accumulation of 17S rRNA,[1],does not cause the accumulation of 17S
"[Mg+2] [Mg^+2, magnesium(II)]",Mg^+2 concentration that inhibits YbeY's RNase activity,"[2]; in vitro, MgSO4 added",≥ 5 mM
gentamycin,accumulation of 17S rRNA,[1],induce the rapid accumulation of 17S rRNA
O=C(N[C@H](CO)[C@H](O)c1ccc([N+](=O)[O-])cc1)C(Cl)Cl [chloramphenicol],accumulation of 17S rRNA,[1],induce the rapid accumulation of 17S rRNA
CN[C@@H]1[C@H](O)[C@H](NC)[C@H]2O[C@@]3(O)C(=O)C[C@@H](C)O[C@H]3O[C@@H]2[C@H]1O [spectinomycin],accumulation of 17S rRNA,[1],induce the rapid accumulation of 17S rRNA
"YbeY: E. coli UPF0054 family member, purified as MBP fusion, MBP removed by TEV protease cleavage; C-terminal FLAG tag",RNase activity against total E. coli rRNA,[3],can degrade total E. coli rRNA
same,degradation of a defined mRNA,[4],can also degrade
same,degradation of double stranded or single stranded DNA,[5],did not degrade
same,degradation of 70S ribosomes,[6],effectively degraded
same,"cleavage of single-stranded RNA (ssRNA) substrate, short sequence of 16S rRNA",[7]; FIG. 3C,cleaved
same,cleavage of a perfect RNA duplex,[7]; FIG. 3D,unable to cleave
same,cleavage of hairpin substrate within the loop,"[7]; hairpin with perfectly paired blunt terminus, FIG. 3H",efficiently cleaved
same,position of major cleavage product from the beginning of the duplex,[7]; FIG. 3E,+1 bases
same,position of major cleavage product from the beginning of the duplex,[7]; FIG. 3F,+2 bases
same,cleavage inside the duplex,[7]; [9],no cleavage events were observed
same,position of major cleavage product from the duplexed end,[7]; [9],+2 bases
same,position of the major YbeY cut,"[7]; third partially dsRNA substrate with free 3′ ssRNA terminus, different nucleotide sequence",flush with the dsRNA end
same,cleavage of 50 nucleotide ssRNA 16S rRNA 3′ terminus mimic,"[8]; mimic alone, 4 μg of YbeY",cleaved this substrate to generate a mature 3′ terminus
same,cleavage at the maturation site,"[8]; mimic paired with a short mRNA, flap like structure",enhance YbeY cleavage at the maturation site
"O=C(O)CN(CCN(CC(=O)O)CC(=O)O)CC(=O)O [EDTA, ethylenediaminetetraacetic acid]",degradation of total rRNA by YbeY in presence of EDTA,"[2]; EDTA added to 50 mM, 30′ at 37° C.",inhibited
